Test results from US10519138B2, “Modulators of SOCE, compositions, and uses thereof” (Università degli Studi del Piemonte Orientale “Amedeo …, priority 2016, dated 2019).

What follows are compounds tested on Store Operated Calcium Entry (SOCE) in BV-2 cells (assay: Fluo-4 fluorimetric assay of tBHQ-induced store operated calcium entry in BV-2 cells). Conditions: Mus musculus, 10 μM, SOCE inhibition based on tBHQ-induced calcium influx.
Type: cell-based, mouse
Procedure: (A) BV-2 cells were plated in poly-d-lysine coated 24-well plate and incubated overnight. After 24 hours, cells were loaded with 2 μM Fluo-4 and placed in an extracellular solution containing 0 mM Ca^2+. Stores were depleted with 50 μM tBHQ and calcium influx was stimulated by the addition of 2 mM Ca^2+ alone (Ctrl), or in conbination with: compound with no activity (NM-3A), and compounds that positively (4-(1-(4-(3,5-bis(trifluoromethyl)-1H-pyrazol-1-yl)phenyl)-1H-1,2,3-triazol-4-yl)benzoic acid) and negatively (3-(1-(4-(4-(ethoxycarbonyl)-5-(trifluoromethyl)-1H-pyrazol-1-yl)phenyl)-1H-1,2,3-triazol-4-yl)benzoic acid) regulate SOCE. Calcium responses are expressed as changes in fluorescence intensity before and after the addition of selected modulators. (B) BV-2 cells were assayed for a calcium response to different concentrations of 3-(1-(4-(4-(ethoxycarbonyl)-5-(trifluoromethyl)-1H-pyrazol-1-yl)phenyl)-1H-1,2,3-triazol-4-yl)benzoic acid and 4-(1-(4-(3,5-bis(trifluoromethyl)-1H-pyrazol-1-yl)phenyl)-1H-1,2,3-triazol-4-yl)benzoic acid (0.1-0.3-1-3-10-30-100 μM) using Fluo-4 fluorimetric assay. Concentration-response curves represent the AUC % of both compounds as compared to positive control.
Immortalized primary mouse microglial BV-2 cells were obtained from ATCC (ATCC® CRL-2540™, Rockville, Md., USA) and were cultured in Dulbecco's Modified Eagle's Medium (DMEM; Sigma-Aldrich, Italy), supplemented with 10% heat-inactivated FBS (Gibco, Italy), 1-glutamine 50 mg/mL (Sigma-Aldrich, Italy), penicillin 10 U/mL and streptomycin […] (Sigma-Aldrich, Italy) at 37° C., under a 5% CO2 humidified atmosphere. For experiments, the cells were plated 2×10^4 per ml in 24 well plates) or onto glass coverslips at concentrations of 4×10^4 per mL (24 mm diame-ter coverslips in 6 well plates).
BV-2 cells were loaded with 5 μM Fluo-4 AM in presence of 0.02% of Pluronic-127 (both from Life Technologies, Italy) and 10 μM sulfinpyrazone in Krebs-Ringer buffer (KRB, 135 mM NaCl, 5 mM KCl, 0.4 mM KH2PO4, 1 mM MgSO4, 5.5 mM glucose, 20 mM HEPES, pH 7.4) containing 2 mM CaCl2 (30 min, room temperature). Subsequently, cells were washed and incubated with KRB for other 30 min to allow de-esterification of Fluo-4 AM. Experiments were carried out prior to and during exposure of the cells to the Ca^2+-free solution. In the absence of Ca^2+, the intracellular Ca^2+ stores were depleted by 2,5-t-butylhydroquinone (tBHQ, 50 μM; Sigma-Aldrich, Italy), a SERCA poison, and then calcium 2 mM was re-added to the extracellular solution. Fluorescence is then monitored sequentially for a second in each well for 600 seconds with excitation at 494 nm and an emission wavelength at 516 nm on the V3 Victor plate-reader (Perkin Elmer), generating time-curves for each well. Data were analysed using Microsoft Excel and GraphPad Prism.
The percentage of SOCE inhibition for each compound was determined based on value of tBHQ-induced calcium influx into BV-2 cells (Table 2).
CCOC(=O)c1cnn(-c2ccc(-n3cc(-c4cccc(O)c4)nn3)cc2)c1C(F)(F)F [ethyl 1-(4-(4-(3-hydroxyphenyl)-1H-1,2,3-triazol-1-yl)phenyl)-5-(trifluoromethyl)-1H-pyrazole-4-carboxylate] gave an inhibition at 10 µM of 3.53%.
CCCC(C)OC(=O)c1cnn(-c2ccc(-n3cc(-c4cccc(C(=O)O)c4)nn3)cc2)c1C(F)(F)F (stereo not shown) [3-(1-(4-(4-((pentan-2-yloxy)carbonyl)-5-(trifluoromethyl)-1H-pyrazol-1-yl)phenyl)-1H-1,2,3-triazol-4-yl)benzoic acid] gave an inhibition at 10 µM of 91.9%.
CCOC(=O)c1cnn(-c2ccc(-n3cc(-c4ccc(OC)c(OC)c4)nn3)cc2)c1C(F)(F)F [ethyl 1-(4-(4-(3,4-dimethoxyphenyl)-1H-1,2,3-triazol-1-yl)phenyl)-5-(trifluoromethyl)-1H-pyrazole-4-carboxylate] gave an inhibition at 10 µM of 17.2%.
Compound CCOC(=O)c1cnn(-c2ccc(-n3cc(-c4ccccc4NC(C)=O)nn3)cc2)c1C(F)(F)F [ethyl 1-(4-(4-(2-acetamidophenyl)-1H-1,2,3-triazol-1-yl)phenyl)-5-(trifluoromethyl)-1H-pyrazole-4-carboxylate] has an inhibition at 10 µM of 28%.
CCOC(=O)c1cnn(-c2ccc(-c3cn(-c4ccncc4)nn3)cc2)c1C(F)(F)F [ethyl 1-(4-(1-(pyridin-4-yl)-1H-1,2,3-triazol-4-yl)phenyl)-5-(trifluoromethyl)-1H-pyrazole-4-carboxylate] gave an inhibition at 10 µM of 20%.
Compound CCOC(=O)c1cnn(-c2ccc(-n3cc(-c4cccc(C(=O)OC)c4)nn3)cc2)c1C(F)(F)F [ethyl 1-(4-(4-(3-(methoxycarbonyl)phenyl)-1H-1,2,3-triazol-1-yl)phenyl)-5-(trifluoromethyl)-1H-pyrazole-4-carboxylate] has an inhibition at 10 µM of 21.8%.
In the case of COc1ccc(-n2cc(-c3ccc(-n4nc(C(F)(F)F)cc4C(F)(F)F)cc3)nn2)cc1 [4-(4-(3,5-bis(trifluoromethyl)-1H-pyrazol-1-yl)phenyl)-1-(4-methoxyphenyl)-1H-1,2,3-triazole], the inhibition at 10 µM is reported as 21.3%.
For CCOC(=O)c1cnn(-c2ccc(-c3cn(-c4cccnc4)nn3)cc2)c1C(F)(F)F [ethyl 1-(4-(1-(pyridin-3-yl)-1H-1,2,3-triazol-4-yl)phenyl)-5-(trifluoromethyl)-1H-pyrazole-4-carboxylate], the inhibition at 10 µM was 37.4%.
CCOC(=O)c1cnn(-c2ccc(-n3cc(-c4ccc(N)cc4)nn3)cc2)c1C(F)(F)F [ethyl 1-(4-(4-(4-aminophenyl)-1H-1,2,3-triazol-1-yl)phenyl)-5-(trifluoromethyl)-1H-pyrazole-4-carboxylate] was tested, and the inhibition at 10 µM was 8.31%.
For CCOC(=O)c1cnn(-c2ccc(-c3cn(-c4cccc(N)c4)nn3)cc2)c1C(F)(F)F [ethyl 1-(4-(1-(3-aminophenyl)-1H-1,2,3-triazol-4-yl)phenyl)-5-(trifluoromethyl)-1H-pyrazole-4-carboxylate], the inhibition at 10 µM was 23%.
CCOC(=O)c1cnn(-c2ccc(-c3cn(-c4ccc(OC)cc4)nn3)cc2)c1C(F)(F)F [ethyl 1-(4-(1-(4-methoxyphenyl)-1H-1,2,3-triazol-4-yl)phenyl)-5-(trifluoromethyl)-1H-pyrazole-4-carboxylate] showed an inhibition at 10 µM of 16.9%.
In the case of CCOC(=O)c1cnn(-c2ccc(-n3cc(-c4cccc(N)c4)nn3)cc2)c1C(F)(F)F [ethyl 1-(4-(4-(3-aminophenyl)-1H-1,2,3-triazol-1-yl)phenyl)-5-(trifluoromethyl)-1H-pyrazole-4-carboxylate], the inhibition at 10 µM is reported as 24.8%.
CCOC(=O)c1cnn(-c2ccc(-n3cc(-c4ccc(OC)cc4)nn3)cc2)c1C(F)(F)F [ethyl 1-(4-(4-(4-methoxyphenyl)-1H-1,2,3-triazol-1-yl)phenyl)-5-(trifluoromethyl)-1H-pyrazole-4-carboxylate] was tested, and the inhibition at 10 µM was 4.77%.
Work on CCOC(=O)c1cnn(-c2ccc(-n3cc(-c4ccccc4)nn3)cc2)c1C(F)(F)F [ethyl 1-(4-(4-phenyl-1H-1,2,3-triazol-1-yl)phenyl)-5-(trifluoromethyl)-1H-pyrazole-4-carboxylate] yielded an inhibition at 10 µM of 14.3%.
In the case of CCOC(=O)c1cnn(-c2ccc(-c3cn(-c4ccc(OC)c(OC)c4)nn3)cc2)c1C(F)(F)F [ethyl 1-(4-(1-(3,4-dimethoxyphenyl)-1H-1,2,3-triazol-4-yl)phenyl)-5-(trifluoromethyl)-1H-pyrazole-4-carboxylate], the inhibition at 10 µM is reported as 12.8%.
Work on FC(F)(F)c1cc(C(F)(F)F)n(-c2ccc(-n3cc(-c4ccccc4)nn3)cc2)n1 [1-(4-(3,5-bis(trifluoromethyl)-1H-pyrazol-1-yl)phenyl)-4-phenyl-1H-1,2,3-triazole] yielded an inhibition at 10 µM of 0.84%.
Compound O=C(O)CCCn1cc(-c2ccc(-n3nc(C(F)(F)F)cc3C(F)(F)F)cc2)nn1 [4-(4-(4-(3,5-bis(trifluoromethyl)-1H-pyrazol-1-yl)phenyl)-1H-1,2,3-triazol-1-yl)butanoic acid] has an inhibition at 10 µM of 18.3%.
For O=C(O)CCCc1cn(-c2ccc(-n3nc(C(F)(F)F)cc3C(F)(F)F)cc2)nn1 [4-(1-(4-(3,5-bis(trifluoromethyl)-1H-pyrazol-1-yl)phenyl)-1H-1,2,3-triazol-4-yl)butanoic acid], the inhibition at 10 µM was 19.9%.
CCOC(=O)c1cnn(-c2ccc(-c3cn(-c4ccc(C(=O)O)cc4)nn3)cc2)c1C(F)(F)F [4-(4-(4-(4-(ethoxycarbonyl)-5-(trifluoromethyl)-1H-pyrazol-1-yl)phenyl)-1H-1,2,3-triazol-1-yl)benzoic acid] showed an inhibition at 10 µM of 19.8%.
Compound Oc1cccc(-c2cn(-c3ccc(-n4nc(C(F)(F)F)cc4C(F)(F)F)cc3)nn2)c1 [3-(1-(4-(3,5-bis(trifluoromethyl)-1H-pyrazol-1-yl)phenyl)-1H-1,2,3-triazol-4-yl)phenol] has an inhibition at 10 µM of 4.06%.
In the case of COc1ccc(-n2cc(-c3ccc(-n4nc(C(F)(F)F)cc4C(F)(F)F)cc3)nn2)cc1OC [4-(4-(3,5-bis(trifluoromethyl)-1H-pyrazol-1-yl)phenyl)-1-(3,4-dimethoxyphenyl)-1H-1,2,3-triazole], the inhibition at 10 µM is reported as 5.7%.
With CCOC(=O)c1cnn(-c2ccc(-n3cc(-c4cccc(C(N)=O)c4)nn3)cc2)c1C(F)(F)F [ethyl 1-(4-(4-(3-carbamoylphenyl)-1H-1,2,3-triazol-1-yl)phenyl)-5-(trifluoromethyl)-1H-pyrazole-4-carboxylate] the inhibition at 10 µM was 2.27%.
